This note sets out measurements from patent publication US8748436B2, “Carboxylic acid derivatives having a 2,5,7-substituted oxazolopyrimidine ring” (Sanofi, priority 2010, dated 2014).

The target of the first test is T1, human Edg-1 receptor (Homo sapiens, UniProt P21453).
T1 construct: FLAG (N); expressed in transfected cells; membrane preparation
T1 sequence (P21453 whole entry): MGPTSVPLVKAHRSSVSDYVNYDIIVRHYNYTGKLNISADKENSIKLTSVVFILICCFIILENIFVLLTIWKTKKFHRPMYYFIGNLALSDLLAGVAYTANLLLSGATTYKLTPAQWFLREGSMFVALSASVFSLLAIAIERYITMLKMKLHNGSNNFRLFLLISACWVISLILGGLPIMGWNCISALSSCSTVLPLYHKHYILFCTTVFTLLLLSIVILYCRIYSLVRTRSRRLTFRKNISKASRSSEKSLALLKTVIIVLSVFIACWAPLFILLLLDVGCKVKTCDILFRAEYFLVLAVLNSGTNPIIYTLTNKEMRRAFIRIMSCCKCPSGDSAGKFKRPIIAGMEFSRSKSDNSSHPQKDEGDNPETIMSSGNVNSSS
The test is described as follows: GTP-γ-S assay using human Edg-1 receptors (scintillation proximity assay, CHO Flp-In cell membrane preparation). The format is biochemical. As to conditions: test compound at 10 μM; high control 10 μM S1P regarded as 100% activation; [35S]GTP-γ-S binding, triplicate. An excerpt: A) GTP-γ-S Assay Using Human Edg-1 Receptors
In order to determine the Edg-1 receptor activation by the compounds of the invention, a GTP-γ-S (guanosine 5′-[thio]triphosphate) assay for G-protein coupled receptor binding based on the scintillation proximity assay principle was used, employing a cell membrane preparation from a CHO Flp-In cell line which constitutively overexpresses the human Edg-1 receptor.
The Flp-In™ expression system (Invitrogen, cat. no. K6010-01) allows the generation of stable mammalian cell lines into which the gene of interest has been integrated through homologous recombination at a specific genomic location called Flp Recombination Target (FRT) site by means of a Flp recombinase encoded by the pOG44 expression plasmid. The integration of the pcDNA5/FRT expression construct into the Flp-In host cell line genome results in the transcription of the gene of interest. The stably transfected cells become hygromycin-resistant.
One day prior to transfection, 200 000 Flp-In-CHO cells were seeded in Ham F-12 medium (Invitrogen, cat. no. 31765) supplemented with 10% fetal calf serum (FCS; Perbio Science, cat. no. SH30068.03) in a 6-well plate and incubated at 37° C./5% CO2 overnight. Using the FuGENE® 6 transfection reagent (Roche, cat. no. 11988387001), cells were cotransfected with the Flp recombinase expression plasmid pOG44 and a modified plasmid additionally containing the edg-1 gene (accession no. NM_001400) termed as pcDNA5-FRT-TO_nFLAG_DEST-EDG-1 with a 9:1 ratio. To obtain the modified pcDNA5-FRT-TO_nFLAG_DEST plasmid, the Invitrogen plasmid pcDNA5/FRT/TO (Invitrogen, cat. no. V6520-20) was adapted to the Gateway® (Invitrogen) cloning system by inserting a Gateway cassette containing attR recombination sites flanking a ccdB gene and a chloramphenicol-resistance gene (Gateway conversion system, Invitrogen, cat. no. 11828-029). In addition a FLAG tag epitope was added before the 5′ att recombination site to allow recombinant expression of N-terminally FLAG-tagged proteins.
For the transfection of one well, 1.08 μg of pOG44 and 0.12 μg of pcDNA5-FRT-TO_nFLAG_DEST-EDG-1 were mixed to 100 μl of serum-free Ham F-12 medium containing 6 μl of FuGENE® 6 transfection reagent. After 20 min of incubation, the transfection reagent/DNA complex was distributed dropwise on the cells. The cells were incubated for 24 h at 37° C. Then the cells from 3 wells were transferred to a T75 flask (Greiner Cellstar®, cat. no. 658175) containing Ham F-12 medium supplemented with 10% of FCS but without antibiotic and were incubated another 24 h. 48 h after transfection, the medium was replaced by selection medium (Ham F-12 supplemented with 10% of FCS and 300 μg/ml of hygromycin B (Invitrogen, cat. no. 10687-010)). The medium was exchanged every 2 to 3 days until a resistant population of cells had grown. […] After 2 weeks of selection, the cells were transferred into T175 flasks (Greiner Cellstar®, cat. no. 660175) and cultivated for batch production. Cells were harvested from the culture flasks by short treatment (2 to 5 min) with Accutase (PAA, cat. no. L11-007), resuspended in selection medium (see above) and centrifuged at 200×g for 5 min. The cells were resuspended in a mixture of 90% of FCS and 10% of dimethylsulfoxide and stored frozen in liquid nitrogen.
A membrane preparation was obtained by standard methods from the afore-described CHO Flp-In cell line constitutively overexpressing the human Edg-1 receptor. Briefly, the cryopreserved cells were taken in culture and grown until confluency in T175 cell culture flasks (Becton Dickinson, cat. no. 35 5001). […]
For orientation: In a scintillation proximity assay essentially only radioactivity close to the scintillant gives light.
Turning to `CCCOc1nc(Oc2cccc(F)c2)nc2oc(-c3cc(C)c(OCC(=O)O)c(C)c3)nc12` [Example 34, {4-[5-(3-fiuorophenoxy)-7-propoxy-oxazolo[5,4-d]pyrimidin-2-yl]-2,6-dimethyl-phenoxy}-acetic acid], the “% Activation (Edg-1 receptor activation in percent of the activation by 10 μM S1P)” value amounted to 48%.

The test is the same for the next values; noted with them: test compound at 10 μM; high control 10 μM S1P regarded as 100% activation; [35S]GTP-γ-S binding, triplicate; read-out: % Activation (Edg-1 receptor activation in percent of the activation by 10 μM S1P).
For `CCCOc1nc(Oc2ccccc2)nc2oc(-c3cc(C)c(OCC(=O)O)c(C)c3)nc12` [Example 9, [2,6-dimethyl-4-(5-phenoxy-7-propoxy-oxazolo[5,4-d]pyrimidin-2-yl)-phenoxy]-acetic acid], the activation at 10 µM was 84%.
On to `CCCOc1nc(Oc2cc(C(F)(F)F)ccc2F)nc2oc(-c3cc(C)c(OCC(=O)O)c(C)c3)nc12` [Example 73, {4-[5-(2-fluoro-5-trifluoromethylphenoxy)-7-propoxy-oxazolo[5,4-d]pyrimidin-2-yl]-2,6-dimethylphenoxy}-acetic acid], for which the activation at 10 µM stood at 59%.
Still for that read-out and setting: then `CCCOc1nc(OCCC(F)(F)F)nc2oc(-c3cc(C)c(OCC(=O)O)c(C)c3)nc12` [Example 16, {2,6-dimethyl-4-[7-propoxy-5-(3,3,3-trifluoro-propoxy)-oxazolo[5,4-d]pyrimidin-2-yl]-phenoxy}-acetic acid], with 107%; and `CCCOc1nc(Oc2cncc(C)c2)nc2oc(-c3cc(C)c(OCC(=O)O)c(C)c3)nc12` [Example 33, {2,6-dimethyl-4-[5-(5-methylpyridin-3-yloxy)-7-propoxy-oxazolo[5,4-d]pyrimidin-2-yl]-phenoxy}-acetic acid], with 110%.
Still for that read-out and setting: then `CCCOc1nc(Oc2cnsn2)nc2oc(-c3cc(C)c(OCC(=O)O)c(C)c3)nc12` [Example 28, {2,6-dimethyl-4-[7-propoxy-5-([1,2,5]thiadiazol-3-yloxy)-oxazolo[5,4-d]pyrimidin-2-yl]-phenoxy}-acetic acid], with 83%.
As to `CCCOc1nc(Oc2cc(C)ccc2F)nc2oc(-c3cc(C)c(OCC(=O)O)c(C)c3)nc12` [Example 45, {4-[5-(2-fluoro-5-methylphenoxy)-7-propoxy-oxazolo[5,4-d]pyrimidin-2-yl]-2,6-dimethylphenoxy}-acetic acid], the activation at 10 µM was determined as 67%.
With `CCCOc1nc(Oc2ccc(F)cc2Cl)nc2oc(-c3cc(C)c(OCC(=O)O)c(C)c3)nc12` [Example 61, {4-[5-(2-chloro-4-fluorophenoxy)-7-propoxy-oxazolo[5,4-d]pyrimidin-2-yl]-2,6-dimethyl-phenoxy}-acetic acid], the activation at 10 µM came to 97%.
As to `CCOc1nc(Oc2ccccc2F)nc2oc(-c3cc(C)c(OCC(=O)O)c(C)c3)nc12` [Example 26, {4-[7-ethoxy-5-(2-fluorophenoxy)-oxazolo[5,4-d]pyrimidin-2-yl]-2,6-dimethyl-phenoxy}-acetic acid], the activation at 10 µM came out at 127%.
On the same count and under the same terms, in the case of `CCCOc1nc(Oc2ccc(Cl)cc2)nc2oc(-c3cc(C)c(OCC(=O)O)c(C)c3)nc12` [Example 46, {4-[5-(4-chlorophenoxy)-7-propoxy-oxazolo[5,4-d]pyrimidin-2-yl]-2,6-dimethylphenoxy}-acetic acid] it was 59%.
On the same count and under the same terms, in the case of `CCOc1nc(Oc2cccc(Cl)c2)nc2oc(-c3cc(C)c(OCC(=O)O)c(C)c3)nc12` [Example 38, {4-[5-(3-chlorophenoxy)-7-ethoxy-oxazolo[5,4-d]pyrimidin-2-yl]-2,6-dimethyl-phenoxy}-acetic acid] it was 55%; in that of `CCCOc1nc(Oc2cncc(F)c2)nc2oc(-c3cc(C)c(OCC(=O)O)c(C)c3)nc12` [Example 37, {4-[5-(5-fluoropyridin-3-yloxy)-7-propoxy-oxazolo[5,4-d]pyrimidin-2-yl]-2,6-dimethyl-phenoxy}-acetic acid], 117%.
In the case of `CCCOc1nc(Oc2ccc(Cl)c(C(F)(F)F)c2)nc2oc(-c3cc(C)c(OCC(=O)O)c(C)c3)nc12` [Example 78, {4-[5-(4-chloro-3-trifluoromethylphenoxy)-7-propoxy-oxazolo[5,4-d]pyrimidin-2-yl]-2,6-dimethylphenoxy}-acetic acid], the activation at 10 µM is 72%.
On the same count and under the same terms, then `CCCOc1nc(OC2CCCC2)nc2oc(-c3cc(C)c(OCC(=O)O)c(C)c3)nc12` [Example 2, [4-(5-Cyclopentyloxy-7-propoxy-oxazolo[5,4-d]pyrimidin-2-yl)-2,6-dimethyl-phenoxy]-acetic acid], with 90%.
Still for that read-out and setting: in the case of `CCCOc1nc(Oc2cncc(Cl)c2)nc2oc(-c3cc(C)c(OCC(=O)O)c(C)c3)nc12` [Example 48, {4-[5-(5-chloropyridin-3-yloxy)-7-propoxy-oxazolo[5,4-d]pyrimidin-2-yl]-2,6-dimethyl-phenoxy}-acetic acid] it was 115%.
On the same count and under the same terms, then `CCCOc1nc(Oc2ccc(C)nc2)nc2oc(-c3cc(C)c(OCC(=O)O)c(C)c3)nc12` [Example 32, {2,6-dimethyl-4-[5-(6-methylpyridin-3-yloxy)-7-propoxy-oxazolo[5,4-d]pyrimidin-2-yl]-phenoxy}-acetic acid], with 114%; and `CCCOc1nc(OCC2CCCC2)nc2oc(-c3cc(C)c(OCC(=O)O)c(C)c3)nc12` [Example 18, [4-(5-cyclopentylmethoxy-7-propoxy-oxazolo[5,4-d]pyrimidin-2-yl)-2,6-dimethyl-phenoxy]-acetic acid], with 83%.
For the compound `CCCOc1nc(Oc2cccc(C)c2)nc2oc(-c3cc(C)c(OCC(=O)O)c(C)c3)nc12` [Example 29, [2,6-dimethyl-4-(7-propoxy-5-(3-methylphenoxy)-oxazolo[5,4-d]pyrimidin-2-yl)-phenoxy]-acetic acid], the activation at 10 µM stood at 75%.
Consider `CCCOc1nc(OC(C)C(F)(F)F)nc2oc(-c3cc(C)c(OCC(=O)O)c(C)c3)nc12` (stereo not drawn) [Example 24, {2,6-dimethyl-4-[7-propoxy-5-(2,2,2-trifluoro-1-methyl-ethoxy)-oxazolo[5,4-d]pyrimidin-2-yl]-phenoxy}-acetic acid], for which the activation at 10 µM was found to be 85%.
The same measure, in the same setting: then `CCOc1nc(Oc2cccc(F)c2)nc2oc(-c3cc(C)c(OCC(=O)O)c(C)c3)nc12` [Example 25, {4-[7-ethoxy-5-(3-fluorophenoxy)-oxazolo[5,4-d]pyrimidin-2-yl]-2,6-dimethyl-phenoxy}-acetic acid], with 84%; and `CCCOc1nc(OCCC)c2nc(-c3cc(C)c(OCC(=O)O)c(C)c3)oc2n1` [Example 15, [4-(5,7-dipropoxy-oxazolo[5,4-d]pyrimidin-2-yl)-2,6-dimethyl-phenoxy]-acetic acid], with 98%; and `CCOc1nc(Oc2cc(F)ccc2C)nc2oc(-c3cc(C)c(OCC(=O)O)c(C)c3)nc12` [Example 36, {4-[7-ethoxy-5-(5-fluoro-2-methylphenoxy)-oxazolo[5,4-d]pyrimidin-2-yl]-2,6-dimethyl-phenoxy}-acetic acid], with 116%.
Same read-out and setting: then `CCCOc1nc(Oc2cccc(Cl)c2)nc2oc(-c3cc(C)c(OCC(=O)O)c(C)c3)nc12` [Example 10, {4-[5-(3-chloro-phenoxy)-7-propoxy-oxazolo[5,4-d]pyrimidin-2-yl]-2,6-dimethyl-phenoxy}-acetic acid], with 86%.
The same measure, in the same setting: then `CCCOc1nc(Oc2ccc3ccccc3c2)nc2oc(-c3cc(C)c(OCC(=O)O)c(C)c3)nc12` [Example 57, {2,6-dimethyl-4-[5-(naphthalen-2-yloxy)-7-propoxy-oxazolo[5,4-d]pyrimidin-2-yl]-phenoxy}-acetic acid], with 58%.
